US9328331B2, “Compositions and methods for promoting beta cell maturity” (Joslin Diabetes Center, Inc., priority 2009, dated 2016)

Experiments:
[1] = system: HPANC-1; conditions: non-insulin expressing human epithelial cell line HPANC-1, Misiti et al. 2005; cited from earlier work
[2] = system: pancreatic acinar cells; conditions: Ledda-Columbano et al. 2005; cited from earlier work
[3] = system: beta cells; conditions: Verga et al. 2006; cited from earlier work
[4] = in vivo administration, rats, Hartoft-Nielson et al. 2009; cited from earlier work
[5] = system: neonatal islets; assay: Quantitative PCR of MafA, insulin and other gene transcription in dispersed neonatal islets cultured with glucose and T3; format: cell-based, rat; conditions: for insulin mRNA / MafA mRNA: 4 days
Description: To analyze the role of thyroid hormone during postnatal development of the endocrine pancreas, dispersed P7 islets were cultured with the two changing physiological stimuli identified so far glucose (11 mM and 20 mM) and tri-iodothyronine (T3 at 10^−11 M in charcoal-stripped fetal bovine serum (CS-FBS)), and after 4 days MafA and insulin transcription were assessed.
To further explore this idea, dispersed P8 islets were cultured with two changing physiological stimuli identified so far glucose (11 mM and 20 mM) and tri-iodothyronine (T3) at a concentration of 10^−11 M (T-11; gray bars) or with […] T3 (T-9) in charcoal-stripped fetal bovine serum (CS-FBS); after 4 days transcription levels of MafA and the MafA targets Ins2, GLP1R, PCSK1, PC, and LDH-A were assessed.
(§1) Similar results were found in static incubation experiments were performed with P7 dispersed islets cultured in the presence (or absence) of 10^−11 M T3 for four days. mRNA levels for MafA and Ins2 were evaluated using real-time PCR. […] To further evaluate insulin secretion in these cells, P8 islets were dispersed and then cultured for 4 days with and without 10^−11 M T3, and a reverse hemolytic plaque assay (RHPA) was used to evaluate insulin secretion from single beta cells. […] FIGS. 8A-8B show beta cell glucose responsiveness in 2.8 or 16.8 mM glucose in control cells (8A) or cells treated with T3 (8B) in one of the three RHPA experiments.

[6] = system: neonatal islets; assay: as above; format: cell-based, rat; conditions: P7 islets cultured with glucose and T3 at 0.015 nM in CS-FBS for four days, separately and together, FIG. 5A legend
[7] = system: P7 dispersed islets; assay: Glucose-stimulated insulin secretion by static incubation, insulin ELISA; format: cell-based, rat; conditions: 10^−11 M T3 for four days, FIG. 6B
Description: RHPA allows the evaluation of secretion from single beta cells (see, e.g., Bosco et al., Am. J. Physiol., 268:C611-C618, 1995; Aguayo-Mazzucato et al., PLoS ONE, 1:e35, 2006). Briefly, insulin secreted during incubation with glucose binds to anti-insulin antibody and complement and lyses RBCs forming hemolytic immunoplaques around secreting cells. Accordingly, the area of the hemolytic plaque is proportional to the amount of insulin secreted by that individual cell. Glucose-stimulated insulin secretion (GSIS) is reflected by the secretion index: the product of the percentage of secreting cells and the mean area of immunoplaques. RHPA is a very sensitive assay in which the proportion of cells secreting and the robustness of their secretion can be measured. […] Insulin secretion was measured in static conditions by sequential incubation in 2.6 mM and 16.8 mM glucose in Krebs-Ringer bicarbonate buffer (KRB, 16 mM HEPES and 0.1% BSA, pH 7.4) as previously described (Schuppin et al., In Vitro Cell Dev Biol Anim 29A:339-344 (1993); Salomon et al., Exp Cell Res 162:507-520 (1986)). […]
Similar results were found in static incubation experiments were performed with P7 dispersed islets cultured in the presence (or absence) of 10^−11 M T3 for four days. mRNA levels for MafA and Ins2 were evaluated using real-time PCR. […]

[8] = system: single beta cells; assay: Reverse hemolytic plaque assay (RHPA) of insulin secretion from single beta cells; format: cell-based, rat
Description: RHPA allows the evaluation of secretion from single beta cells (see, e.g., Bosco et al., Am. J. Physiol., 268:C611-C618, 1995; Aguayo-Mazzucato et al., PLoS ONE, 1:e35, 2006). Briefly, insulin secreted during incubation with glucose binds to anti-insulin antibody and complement and lyses RBCs forming hemolytic immunoplaques around secreting cells. Accordingly, the area of the hemolytic plaque is proportional to the amount of insulin secreted by that individual cell. Glucose-stimulated insulin secretion (GSIS) is reflected by the secretion index: the product of the percentage of secreting cells and the mean area of immunoplaques. RHPA is a very sensitive assay in which the proportion of cells secreting and the robustness of their secretion can be measured. However it is laborious, therefore classic static insulin secretion studies were also performed with an insulin ELISA for measurement. Insulin secretion was measured in static conditions by sequential incubation in 2.6 mM and 16.8 mM glucose in Krebs-Ringer bicarbonate buffer (KRB, 16 mM HEPES and 0.1% BSA, pH 7.4) as previously described (Schuppin et al., In Vitro Cell Dev Biol Anim 29A:339-344 (1993); Salomon et al., Exp Cell Res 162:507-520 (1986)). Supernatants and cells were frozen until assayed for Insulin content.
as §1

[9] = P8 islet cells treated with T3 vs control untreated cells, quantitative PCR, FIG. 9
[10] = P8 islets cultured for 4 days with 0.015 nM T3 (T-9)
[11] = dispersed P8 islets, glucose (11 mM and 20 mM) and T3, CS-FBS, FIG. 5C

Which “differentiation to or towards a glucose responsive insulin secreting cell line” value [1] does the source give for `N[C@@H](Cc1cc(I)c(Oc2ccc(O)c(I)c2)c(I)c1)C(=O)O` [T3, L-3,5,3′-triiodothyronine] here?
The value was “promote differentiation”.

What about the “proliferation in pancreatic acinar cells” value [2] of the same compound?
The value was “promotes increased proliferation”.

What about the “proliferation in pancreatic islet (e.g., beta cells) and ductal cells” value [2] of the same compound?
The value was “but not in pancreatic islet (e.g., beta cells) and ductal cells”.

What about the “apoptosis in beta cells” value [3] of the same compound?
Its value is “reduces apoptosis”.

And the “cell proliferation in beta cells” value [3]?
The value was “promotes cell proliferation”.

And the beta cell mass [4]?
The beta cell mass was “increased”.

And the “incidence of type I diabetes” value [4]?
Its value is “reduced”.

What about the “MafA mRNA levels increase” value ([5]; P7 dispersed islets, 10^−11 M T3 for four days, real-time PCR, FIG. 6A) of the same compound?
The value was “about two-fold”.

And the “transcription of MCT1” value [5, 9]?
The value was “significantly increases”.

And the “transcription of MafA” value [5, 9]?
Its value is “significantly increases”.

And the “transcription of TRb” value [5, 9]?
The value was “significantly increases”.

And the “MafA mRNA increase compared with control cultured islets” value [5, 10]?
The value was 2.5 fold.

What about the “insulin mRNA increase compared with control cultured islets” value [5, 10] of the same compound?
The value was 71%.

And the “insulin mRNA” value ([5]; dispersed P7 islets, glucose (11 mM and 20 mM) and T3 at 10^−11 M in CS-FBS, stimuli separately and together)?
The value was “significantly increased”.

What about the “MafA mRNA” value ([5]; dispersed P7 islets, glucose (11 mM and 20 mM) and T3 at 10^−11 M in CS-FBS, stimuli separately and together, FIG. 5A) of the same compound?
Its value is “significantly increased”.

And the “MafA mRNA” value [5, 11]?
Its value is “significantly increased”.

What about the “insulin mRNA” value [5, 11] of the same compound?
Its value is “significantly increased”.

And the MafA transcription [6]?
The MafA transcription was “increase”.

What about the Glucose-stimulated insulin secretion [7] of the same compound?
Its Glucose-stimulated insulin secretion is “significantly increased”.

And the “insulin secretion in response to 16.8 mM glucose” value ([8]; P7 cells cultured for 4 days with thyroid hormone, one experiment)?
The value was “an increase in insulin secretion”.

What about the “insulin secretion in the presence 16.8 mM glucose” value ([8]; P7 cells treated with T3 compared to untreated control cells, FIGS. 7A and 7B legend) of the same compound?
Its value is “increases insulin secretion”.

What about the insulin secretion index ([8]; dispersed P8 islets cultured for 4 days with 10^−11 M T3, FIG. 7A) of the same compound?
Its insulin secretion index is “marked increase”.

And the “percentage of insulin secreting cells” value ([8]; dispersed P8 islets cultured for 4 days with 10^−11 M T3, FIG. 7B)?
Its value is “marked increase”.
